{
  "source": "PubChem BioAssay (NCI)",
  "assay_in_all_cases": "inhibition of tumour cell growth, NCI panel, 384-well format",
  "key": {"[1]": {"system": "CAKI-1 renal"}, "[2]": {"system": "HS 578T breast"}, "[3]": {"system": "HT29 colon"}, "[4]": {"system": "M14 melanoma"}, "[5]": {"system": "NCI-H23 lung"}, "[6]": {"system": "OVCAR-4 ovarian"}, "[7]": {"system": "OVCAR-5 ovarian"}, "[8]": {"system": "PC-3 prostate"}, "[9]": {"system": "SF-268 CNS"}, "[10]": {"system": "SK-MEL-28 melanoma"}, "[11]": {"system": "SK-MEL-5 melanoma"}, "[12]": {"system": "SR leukemia"}, "[13]": {"system": "U251 glioblastoma"}},
  "note": "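GI50 = concentration required for 50% inhibition of growth. TGI marks complete inhibition of growth.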",
  "data": [
    {"molecule": "C[C@H](NC(=O)c1c(N)nn2cccnc12)c1cc2cccc(C#Cc3cnn(C)c3)c2c(=O)n1-c1ccccc1", "values": [
      {"measurement": "GI50", "setting": "[1]", "value": 1.28, "unit": "µM"},
      {"measurement": "TGI", "setting": "[1]", "value": 15.7, "unit": "µM"},
      {"measurement": "GI50", "setting": "[2]", "value": 0.846, "unit": "µM"},
      {"measurement": "TGI", "setting": "[2]", "value": 6.01, "unit": "µM"},
      {"measurement": "GI50", "setting": "[3]", "value": 6.3, "unit": "µM"},
      {"measurement": "TGI", "setting": "[3]", "value": 20, "unit": "µM"},
      {"measurement": "GI50", "setting": "[4]", "value": 11.1, "unit": "µM"},
      {"measurement": "TGI", "setting": "[4]", "value": 24.9, "unit": "µM"},
      {"measurement": "GI50", "setting": "[5]", "value": 4.63, "unit": "µM"},
      {"measurement": "TGI", "setting": "[5]", "value": 18.9, "unit": "µM"},
      {"measurement": "GI50", "setting": "[6]", "value": 11.9, "unit": "µM"},
      {"measurement": "TGI", "setting": "[6]", "value": 25.4, "unit": "µM"},
      {"measurement": "GI50", "setting": "[7]", "value": 8.39, "unit": "µM"},
      {"measurement": "TGI", "setting": "[7]", "value": 22.2, "unit": "µM"},
      {"measurement": "GI50", "setting": "[8]", "value": 1.84, "unit": "µM"},
      {"measurement": "TGI", "setting": "[8]", "value": 12.9, "unit": "µM"},
      {"measurement": "GI50", "setting": "[9]", "value": 2.02, "unit": "µM"},
      {"measurement": "TGI", "setting": "[9]", "value": 9.93, "unit": "µM"},
      {"measurement": "GI50", "setting": "[10]", "value": 4.42, "unit": "µM"},
      {"measurement": "TGI", "setting": "[10]", "value": 17.8, "unit": "µM"},
      {"measurement": "GI50", "setting": "[11]", "value": 5.38, "unit": "µM"},
      {"measurement": "TGI", "setting": "[11]", "value": 20, "unit": "µM"},
      {"measurement": "GI50", "setting": "[12]", "value": 4.16, "unit": "µM"},
      {"measurement": "TGI", "setting": "[12]", "value": 16.9, "unit": "µM"},
      {"measurement": "GI50", "setting": "[13]", "value": 12.3, "unit": "µM"},
      {"measurement": "TGI", "setting": "[13]", "value": 25.1, "unit": "µM"}
    ]}
  ]
}
